According to ChEMBL document CHEMBL1909046, “DrugMatrix in vitro pharmacology data”:

Assays:
[1] = target: T1, Angiotensin-converting enzyme (Oryctolagus cuniculus, UniProt P12822); format: tissue-based, Lung;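 note: enzymatic inhibition of angiotensin-converting enzyme measured with FAPGG as the substrate; in other assays of this panel Not Active means under 50% inhibition at 10 µM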
T1 sequence (P12822 whole entry): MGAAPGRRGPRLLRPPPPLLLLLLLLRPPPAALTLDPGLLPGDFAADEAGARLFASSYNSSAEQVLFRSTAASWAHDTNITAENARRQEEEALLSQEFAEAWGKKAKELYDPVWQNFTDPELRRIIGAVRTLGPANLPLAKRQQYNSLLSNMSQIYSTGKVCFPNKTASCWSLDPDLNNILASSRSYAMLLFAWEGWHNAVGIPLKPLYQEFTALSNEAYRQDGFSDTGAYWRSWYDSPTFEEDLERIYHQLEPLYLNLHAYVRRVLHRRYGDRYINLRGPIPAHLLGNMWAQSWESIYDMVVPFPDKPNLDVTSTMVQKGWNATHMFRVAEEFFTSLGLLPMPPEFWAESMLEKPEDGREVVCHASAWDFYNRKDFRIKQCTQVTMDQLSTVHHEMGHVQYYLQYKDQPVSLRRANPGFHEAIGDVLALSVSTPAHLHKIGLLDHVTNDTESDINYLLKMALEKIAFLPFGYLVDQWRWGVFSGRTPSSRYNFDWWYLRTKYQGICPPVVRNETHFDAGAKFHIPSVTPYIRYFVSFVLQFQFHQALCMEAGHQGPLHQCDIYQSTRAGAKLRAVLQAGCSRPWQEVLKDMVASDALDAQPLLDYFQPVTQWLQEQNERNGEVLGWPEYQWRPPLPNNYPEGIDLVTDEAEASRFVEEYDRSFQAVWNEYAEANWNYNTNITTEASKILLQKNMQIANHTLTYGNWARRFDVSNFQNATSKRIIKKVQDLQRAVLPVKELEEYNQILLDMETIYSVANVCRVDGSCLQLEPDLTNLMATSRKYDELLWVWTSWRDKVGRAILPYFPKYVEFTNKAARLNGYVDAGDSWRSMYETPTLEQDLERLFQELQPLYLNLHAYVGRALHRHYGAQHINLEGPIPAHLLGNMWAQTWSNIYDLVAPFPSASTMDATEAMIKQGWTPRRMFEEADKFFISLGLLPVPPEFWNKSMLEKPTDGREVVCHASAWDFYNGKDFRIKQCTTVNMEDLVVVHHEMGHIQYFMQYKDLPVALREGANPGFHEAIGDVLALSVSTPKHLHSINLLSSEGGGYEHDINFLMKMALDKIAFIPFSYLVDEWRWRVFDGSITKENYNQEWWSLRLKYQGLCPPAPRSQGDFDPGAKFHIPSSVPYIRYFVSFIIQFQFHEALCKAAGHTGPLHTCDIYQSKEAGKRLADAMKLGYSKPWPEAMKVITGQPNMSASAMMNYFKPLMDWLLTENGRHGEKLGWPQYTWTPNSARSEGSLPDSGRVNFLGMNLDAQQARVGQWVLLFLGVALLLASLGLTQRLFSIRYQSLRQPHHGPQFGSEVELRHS

Adenosine receptor A3 = target: T2, Adenosine receptor A3 (Homo sapiens, UniProt P0DMS8); format: cell membranes, CHO-K1, Membrane; details: cho-k1;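 note: radioligand binding assay with AB-MECA serving as the labeled ligand; in other assays of this panel Not Active means under 50% inhibition at 10 µM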
T2 sequence (P0DMS8 whole entry): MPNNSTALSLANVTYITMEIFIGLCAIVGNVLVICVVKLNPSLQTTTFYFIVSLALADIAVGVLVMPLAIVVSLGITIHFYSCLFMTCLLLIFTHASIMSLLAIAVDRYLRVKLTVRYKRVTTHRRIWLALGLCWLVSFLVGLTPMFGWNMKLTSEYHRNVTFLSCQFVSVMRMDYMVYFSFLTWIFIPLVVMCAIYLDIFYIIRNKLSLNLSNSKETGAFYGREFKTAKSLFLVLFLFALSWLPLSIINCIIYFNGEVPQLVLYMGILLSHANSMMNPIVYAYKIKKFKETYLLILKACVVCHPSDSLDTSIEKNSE

[2] = target: Platelet-activating factor receptor (Homo sapiens, UniProt P25105); format: tissue-based; note: in other assays of this panel Not Active means under 50% inhibition at 10 µM
Calcitonin receptor = target: T3, Calcitonin receptor (Homo sapiens, UniProt P30988); format: cell membranes, Membrane; details: t47d; note: in other assays of this panel Not Active means under 50% inhibition at 10 µM
T3 sequence (P30988 whole entry): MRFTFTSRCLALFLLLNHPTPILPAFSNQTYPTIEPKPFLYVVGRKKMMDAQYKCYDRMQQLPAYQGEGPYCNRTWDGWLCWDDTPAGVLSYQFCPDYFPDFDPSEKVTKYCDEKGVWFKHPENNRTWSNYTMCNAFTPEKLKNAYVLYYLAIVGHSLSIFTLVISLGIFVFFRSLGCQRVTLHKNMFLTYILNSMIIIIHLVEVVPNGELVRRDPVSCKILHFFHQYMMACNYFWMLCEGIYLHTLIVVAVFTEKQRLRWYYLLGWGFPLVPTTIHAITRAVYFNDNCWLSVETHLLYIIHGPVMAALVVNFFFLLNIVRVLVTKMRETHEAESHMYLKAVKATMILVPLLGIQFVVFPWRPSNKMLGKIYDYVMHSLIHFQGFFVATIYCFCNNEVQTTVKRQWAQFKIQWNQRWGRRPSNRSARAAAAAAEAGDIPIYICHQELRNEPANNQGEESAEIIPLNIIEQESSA

[3] = DRUGMATRIX: Phosphodiesterase PDE3 enzyme inhibition (substrate: [3H]cAMP + cAMP); format: tissue-based, Homo sapiens; details: platelet; Not Active = under 50% inhibition at 10 µM
D(4) dopamine receptor = target: T4, D(4) dopamine receptor (Homo sapiens, UniProt P21917); assay: DRUGMATRIX: Dopamine D4.2 radioligand binding (ligand: [3H] Spiperone); format: cell membranes, CHO-K1, Membrane; details: cho-k1; Not Active = under 50% inhibition at 10 µM
T4 sequence (P21917 whole entry): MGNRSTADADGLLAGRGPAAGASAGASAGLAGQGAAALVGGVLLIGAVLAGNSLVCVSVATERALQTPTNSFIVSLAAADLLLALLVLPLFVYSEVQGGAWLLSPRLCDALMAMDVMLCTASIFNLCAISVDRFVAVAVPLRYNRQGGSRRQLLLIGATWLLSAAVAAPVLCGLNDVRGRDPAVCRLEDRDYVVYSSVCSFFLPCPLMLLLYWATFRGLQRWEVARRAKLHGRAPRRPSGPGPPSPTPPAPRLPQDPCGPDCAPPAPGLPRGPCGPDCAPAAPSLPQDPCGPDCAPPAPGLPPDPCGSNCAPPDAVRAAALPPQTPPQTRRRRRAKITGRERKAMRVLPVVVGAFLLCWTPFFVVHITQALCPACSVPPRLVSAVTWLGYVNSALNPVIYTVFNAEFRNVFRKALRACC

Platelet-activating factor receptor, sequence (P25105 whole entry): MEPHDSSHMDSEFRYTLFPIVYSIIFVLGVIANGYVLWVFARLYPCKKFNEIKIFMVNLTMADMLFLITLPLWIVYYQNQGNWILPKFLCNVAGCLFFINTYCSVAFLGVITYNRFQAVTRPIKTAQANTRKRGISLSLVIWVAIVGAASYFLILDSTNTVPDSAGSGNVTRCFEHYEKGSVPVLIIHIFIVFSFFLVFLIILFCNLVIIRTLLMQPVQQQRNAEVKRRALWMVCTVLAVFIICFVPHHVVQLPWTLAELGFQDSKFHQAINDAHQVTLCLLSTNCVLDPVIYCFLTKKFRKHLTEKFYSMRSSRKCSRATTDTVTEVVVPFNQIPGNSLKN

OC(CCCN1CCCCC1)(c1ccccc1)c1ccccc1 [DIPHENIDOL]
Not Active: IC50 [1] | IC50 (Adenosine receptor A3) | IC50 [2] | IC50 (Calcitonin receptor) | IC50 [3] | Ki [3] | IC50 (D(4) dopamine receptor)

C[C@H]1O[C@@H](n2cc(F)c(=O)[nH]c2=O)[C@H](O)[C@@H]1O [DOXIFLURIDINE]
Not Active: IC50 [1] | IC50 (Adenosine receptor A3) | IC50 [2] | IC50 (Calcitonin receptor) | IC50 [3] | Ki [3] | IC50 (D(4) dopamine receptor)

Cn1c(=O)c2c(ncn2CC(O)CO)n(C)c1=O (configuration not stated) [DYPHYLLINE]
Not Active: IC50 [1] | IC50 (Adenosine receptor A3) | IC50 [2] | IC50 (Calcitonin receptor) | IC50 [3] | Ki [3] | IC50 (D(4) dopamine receptor)

CC[C@H]1CN2CCc3cc(OC)c(OC)cc3[C@@H]2C[C@@H]1C[C@H]1NCCc2cc(OC)c(OC)cc21 [EMETINE]
Not Active: IC50 [1] | IC50 (Adenosine receptor A3) | IC50 [2] | IC50 (Calcitonin receptor) | IC50 [3] | Ki [3] | IC50 (D(4) dopamine receptor)

C[C@@H](CO)NC(=O)[C@@H]1C=C2c3cccc4[nH]cc(c34)C[C@H]2N(C)C1 [ERGONOVINE]
Not Active: IC50 [1] | IC50 (Adenosine receptor A3) | IC50 [2] | IC50 (Calcitonin receptor) | IC50 [3] | Ki [3] | IC50 (D(4) dopamine receptor)

COC(=O)CCc1ccc(OCC(O)CNC(C)C)cc1 (configuration not stated) [ESMOLOL]
Not Active: IC50 [1] | IC50 (Adenosine receptor A3) | IC50 [2] | IC50 (Calcitonin receptor) | IC50 [3] | Ki [3] | IC50 (D(4) dopamine receptor)

CCC1(C)CC(=O)NC1=O (configuration not stated) [ETHOSUXIMIDE]
Not Active: IC50 [1] | IC50 (Adenosine receptor A3) | IC50 [2] | IC50 (Calcitonin receptor) | IC50 [3] | Ki [3] | IC50 (D(4) dopamine receptor)

C#C[C@]1(OC(C)=O)CC[C@H]2[C@@H]3CCC4=C[C@@H](OC(C)=O)CC[C@@H]4[C@H]3CC[C@@]21C [ETHYNODIOL DIACETATE]
Not Active: IC50 [1] | IC50 (Adenosine receptor A3) | IC50 [2] | IC50 (Calcitonin receptor) | IC50 [3] | Ki [3] | IC50 (D(4) dopamine receptor)

COc1cc([C@@H]2c3cc4c(cc3[C@@H](O[C@@H]3O[C@@H]5CO[C@@H](C)O[C@H]5[C@H](O)[C@H]3O)[C@H]3COC(=O)[C@H]23)OCO4)cc(OC)c1O [ETOPOSIDE]
Not Active: IC50 [1] | IC50 (Adenosine receptor A3) | IC50 [2] | IC50 (Calcitonin receptor) | IC50 [3] | Ki [3] | IC50 (D(4) dopamine receptor)

C=CCc1ccc(O)c(OC)c1 [EUGENOL]
Not Active: IC50 [1] | IC50 (Adenosine receptor A3) | IC50 [2] | IC50 (Calcitonin receptor) | IC50 [3] | Ki [3] | IC50 (D(4) dopamine receptor)

CC(C(=O)O)c1cccc(Oc2ccccc2)c1 (configuration not stated) [FENOPROFEN]
Not Active: IC50 [1] | IC50 (Adenosine receptor A3) | IC50 [2] | IC50 (Calcitonin receptor) | IC50 [3] | Ki [3] | IC50 (D(4) dopamine receptor)

CC(C)(C)NC(=O)[C@H]1CC[C@H]2[C@@H]3CC[C@H]4NC(=O)C=C[C@]4(C)[C@H]3CC[C@]12C [FINASTERIDE]
Not Active: IC50 [1] | IC50 (Adenosine receptor A3) | IC50 [2] | IC50 (Calcitonin receptor) | IC50 [3] | Ki [3] | IC50 (D(4) dopamine receptor)

COc1ccc2c3c1O[C@H]1C[C@@H](O)C=C[C@@]31CCN(C)C2 [GALANTAMINE]
Not Active: IC50 [1] | IC50 (Adenosine receptor A3) | IC50 [2] | IC50 (Calcitonin receptor) | IC50 [3] | Ki [3] | IC50 (D(4) dopamine receptor)

Nc1ccn([C@@H]2O[C@H](CO)[C@@H](O)C2(F)F)c(=O)n1 [GEMCITABINE]
Not Active: IC50 [1] | IC50 (Adenosine receptor A3) | IC50 [2] | IC50 (Calcitonin receptor) | IC50 [3] | Ki [3] | IC50 (D(4) dopamine receptor)

CC(C)=CCC/C(C)=C/CO [GERANIOL]
Not Active: IC50 [1] | IC50 (Adenosine receptor A3) | IC50 [2] | IC50 (Calcitonin receptor) | IC50 [3] | Ki [3] | IC50 (D(4) dopamine receptor)

N=C(N)NC(=O)Cc1c(Cl)cccc1Cl [GUANFACINE]
Not Active: IC50 [1] | IC50 (Adenosine receptor A3) | IC50 [2] | IC50 (Calcitonin receptor) | IC50 [3] | Ki [3] | IC50 (D(4) dopamine receptor)
